# Test results as given in US11103562B2, “Composition comprising alkaline phosphatase for use in the treatment of arthritides” (AMRIF BV, priority 2017, dated 2021).
# Entries after “also recorded” stand apart in the source; their conditions may differ.
# B1: placental ALP: human placental alkaline phosphatase isoenzyme, fully glycosylated tissue specific ectophosphatase (native or recombinant) (protein, UniProt P05187 23-506, looked up)
# Alkaline phosphatase, …: IIPVEEENPDFWNREAAEALGAAKKLQPAQTAAKNLIIFLGDGMGVSTVTAARILKGQKKDKLGPEIPLAMDRFPYVALSKTYNVDKHVPDSGATATAYLCGVKGNFQTIGLSAAARFNQCNTTRGNEVISVMNRAKKAGKSVGVVTTTRVQHASPAGTYAHTVNRNWYSDADVPASARQEGCQDIATQLISNMDIDVILGGGRKYMFRMGTPDPEYPDDYSQGGTRLDGKNLVQEWLAKRQGARYVWNRTELMQASLDPSVTHLMGLFEPGDMKYEIHRDSTLDPSLMEMTEAALRLLSRNPRGFFLFVEGGRIDHGHHESRAYRALTETIMFDDAIERAGQLTSEEDTLSLVTADHSHVFSFGGYPLRGSSIFGLAPGKARDRKAYTVLLYGNGPGYVLKDGARPDVTESESGSPEYRQQSAVPLDEETHAGEDVAVFARGPQAHLVHGVQEQTFIAHVMAFAACLEPYTACDLAPPAGTTD
# B2: intestinal isoenzyme: intestinal alkaline phosphatase isoenzyme, tissue specific ectophosphatase (protein, UniProt P09923 20-503, looked up)
# Intestinal-type alkaline …: VIPAEEENPAFWNRQAAEALDAAKKLQPIQKVAKNLILFLGDGLGVPTVTATRILKGQKNGKLGPETPLAMDRFPYLALSKTYNVDRQVPDSAATATAYLCGVKANFQTIGLSAAARFNQCNTTRGNEVISVMNRAKQAGKSVGVVTTTRVQHASPAGTYAHTVNRNWYSDADMPASARQEGCQDIATQLISNMDIDVILGGGRKYMFPMGTPDPEYPADASQNGIRLDGKNLVQEWLAKHQGAWYVWNRTELMQASLDQSVTHLMGLFEPGDTKYEIHRDPTLDPSLMEMTEAALRLLSRNPRGFYLFVEGGRIDHGHHEGVAYQALTEAVMFDDAIERAGQLTSEEDTLTLVTADHSHVFSFGGYTLRGSSIFGLAPSKAQDSKAYTSILYGNGPGYVFNSGVRPDVNESESGSPDYQQQAAVPLSSETHGGEDVAVFARGPQAHLVHGVQEQSFVAHVMAFAACLEPYTACDLAPPACTTD
# Experiments:
# [1] = Tolerability of therapeutic interventions in arthritic rats; format: in vivo
# Method: (§1) All rats (except healthy) were immunized and arthritis was induced via 1× or 4× intra-articular (i.a) mBSA injections, 4 or 5 days apart in the arthritic (right) knee, the contralateral (left, non-arthritic) knee serving as control knee. For therapeutic interventions, AP (human recombinant placenta AP, TNO, Zeist, The Netherlands) was administered subcutaneously (s.c.) at a dose of 700 U/kg (≈200 μg), MTX (VU University Medical Centers' Pharmacy) was administered intra-peritoneal (i.p.) at two dosages: 0.3 mg/kg (low dose) and 1.0 mg/kg (high dose). The rats were divided in 8 groups, based on different treatments and treatment schedules. In a prophylactic setting, two rats received AP twice prior to intra-articular (i.a.) arthritis induction and four rats received AP twice prior to intra-articular and 4× PBS in between i.a. injections. In the treatment groups, arthritic rats were administered AP twice or 4× after arthritis induction, either as standalone therapy or in combination with low or high dose MTX. Control rats received 500 μL of PBS (i.p.). […] At the end of study, all rats were sacrificed and tissues were excised for further processing and various analyses.
# [2] = system: arthritic rats; experiment: Knee swelling in rats with mBSA antigen-induced arthritis; format: in vivo, rat
# Method: (§2) Experiments were performed using a rat model for RA as published by Chandruputla et al. (BioMed Int, 2015) to show the effects of recombinant human alkaline phosphatase (hRESCAP) on RA. hRESCAP was compared with MTX used as a positive control. The antigen-induced rat model uses two subcutaneous immunizations with a mixture of methylated bovine serum albumin (mBSA), CFA (complete Freund's adjuvant antigen) and CBP (custom Bordetella pertussis antigen) and intra-articular injections of mBSA on one side knee and saline (negative control) on the counter knee. Immunohistochemical (IHC) analysis specifically focussed on infiltration with macrophages and knee swelling is followed over time after therapeutic treatment with MTX, or hRESCAP.
# (§3) In the rat model, RA is induced in the right knee (RA knee), the contralateral left knee serves as a internal control (control knee). The model allows various options for therapeutic interventions, either before intra-articular injections or during boosts injections with mBSA. Two hours prior to AP administration, rats received a dose of levamisole (50 mg/kg, s.c.). For comparison, arthritic rats received treatment with methotrexate (1 mg/kg, i.p.).
# as §1
# [3] = system: ED1+ and ED2+ synovial macrophages; experiment: Synovial macrophage infiltration (ED1/ED2 immunohistochemistry) in knees of rats with mBSA antigen-induced arthritis; format: in vivo, rat
# Method: as §2, §3
# At the end of the experiment, rats were sacrificed and knees were decalcified and processed for IHC analysis of synovial macrophage infiltration, including 2 rat macrophage antibodies; ED1 (homolog of human CD68) and ED2 (homolog of human CD163, a proposed marker for human M2 anti-inflammatory macrophages). IHC analysis of ED1 and ED2 macrophages was performed in multiple quadrants of synovial tissue, as described by Chandruputla et al (BioMed Int, 2015). Macrophage counting included synovial lining layer (SL 1-10) and synovial sublining layers (SL 1-20).
# as §1
# The arthritic and contralateral knees from all rats were dissected in toto and fixed for 7 days at 4° C. in 10% freshly made paraformaldehyde in PBS with 2% sucrose (pH=7.3) prior to decalcification in osteosoft (101728, Merck, Germany) for ˜2.5 weeks at room temperature. Thereafter, knees were embedded in paraffin. Sections of 5 μm were cut through the centre of the joint in longitudinal direction and stained with haematoxylin and eosin (HE) to assess the degree of inflammation in synovial tissue. Liver and spleen sections from all rats were dissected and fixed in 4% paraformaldehyde for 24 h before embedding in paraffin. Sections of 5 μm were cut and stained initially with HE and then for macrophages Staining for macrophages with ED1 (homologous to human CD68), and ED2 (homologous to human CD163, a marker for M2 anti-inflammatory macrophages), or isotype control antibody was performed. Images were captured using a Leica 4000B microscope and Leica digital camera DC500 (Microsystems B. V. Rijswijk, The Netherlands). […]
# [4] = system: macrophages; settings: rat, in vivo
# Method: At the end of the treatment period, arthritic rats receiving 4× AP, 4× AP/low dose MTX, 4× AP/high dose MTX treatment, and untreated rats, were administered with [^18F]fluoro-PEG-folate tracer. Sixty minutes after tracer administration, rats were sacrificed. Low and high dose MTX treated arthritic rats were sacrificed without tracer administration. Upon sacrificing, all rats were excised and knees, blood and various internal organs were collected, rinsed, dipped dry, weighed and the amount of radioactivity determined using an LKB 1282 Compugamma CS gamma counter (LKB, Wallac, Turku, Finland). Results for tracer uptake in the various tissues were expressed as percentage of the injected dose per gram tissue (%ID/g).
# [5] = cited from earlier work; for plasma residence time: in vivo
molecule,measurement,setting,value
"CN(Cc1cnc2nc(N)nc(N)c2n1)c1ccc(C(=O)N[C@@H](CCC(=O)O)C(=O)O)cc1 [MTX, Methotrexate, reference compound]",changes in body weight,[1],nor were significant changes in the body weight observed
same,swelling of the mBSA-injected right knee,"[2]; prophylactic and therapeutic AP treatment or MTX treatment, versus positive control",Reduced swelling
same,swelling of the non-treated left knee,[2]; versus positive control treatment,swelling is reduced
same,effect of the two MTX doses on the number of ED1 macrophages in the arthritic knee,[3]; MTX 0.3 mg/kg versus 1.0 mg/kg,identical effect
same,ED1+ synovial macrophage infiltration in arthritic knee (in words),"[3]; therapeutic treatment, 4× after first i.a. and in between boosts, AP 700 U/kg, MTX 1 mg/kg",even more reduced macrophage ED1+ counts; also recorded: very much reduced
[^18F]fluoro-PEG-folate [reference compound],clearance of the tracer from plasma,[4],rapidly cleared from plasma
B1,plasma residence time,[5],6 to 7 days
same,half-life (T1/2) of clearance out of circulation,[5]; pregnant women,170 h
B2,plasma residence time,[5],short plasma residence time
